Consider six compounds from US20240254118A1, “PRMT5 INHIBITORS AND USES THEREOF” (Gilead Sciences, Inc., priority 2022, published 2024).

Assay [1] has as its system SDMA signal (PRMT5 inhibition) in HCT116 MTAP-deleted cells. In words: Symmetric di-methyl arginine image-based high content screen assay (SDMA assay), HCT116 MTAP-deleted. It counts as cell-based. The conditions noted are these: SDMA assay; for EC50: Homo sapiens, HCT-116, 72 h, 3 days of treatment, cell line not given, taken as HCT116 MTAP-deleted, read-out: EC50 (SDMA assay); for EC50 selectivity (SDMA assay): taken as HCT116 WT vs MTAP-deleted. In a few lines:
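Read-out: per-cell mean SDMA immunofluorescence (Alexa Fluor 488 secondary), cells segmented by DAPI on a high-content imager. Compound exposure in HCT116 MTAP-deleted cells lasted until fixation on Day 3; overnight 4° C primary anti-SDMA antibody staining.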

Assay [2] relates to HCT116 MTAP-deleted cells. In words: Cell viability assay (CellTiter-Glo, 7 days), HCT116 MTAP-deleted. The conditions noted are these: Homo sapiens, HCT-116, 168 h. In general terms: In ATP-based viability assays light output follows the ATP content of the culture.

One may read the EC50 as the concentration needed to bring the measured effect to its halfway point. By CC50 is commonly meant the concentration that lowers cell viability or growth by half. Low readings indicate harm at low concentration, high ones better tolerance by the cells.

Consider `CC(=O)N(C)N(Cc1ccc(F)cc1C#N)C(=O)c1ccc2nc(N)c3cnn(C)c3c2c1` [Example 452, N′-acetyl-4-amino-N-(2-cyano-4-fluorobenzyl)-N′,1-dimethyl-1H-pyrazolo[4,3-c]quinoline-8-carbohydrazide], for which, in assay [1], the EC50 is < 1 nM and the “EC50 selectivity (SDMA assay)” value amounted to 213. The CC50 in assay [2] is < 100 nM.

With `CN(CC1CCC1)N(Cc1ccc(C(F)(F)F)cn1)C(=O)c1cc2c(cc1F)nc(N)c1cnn(C)c12` [Example 453, 4-amino-N′-(cyclobutylmethyl)-7-fluoro-N′,1-dimethyl-N-((5-(trifluoromethyl)pyridin-2-yl)methyl)-1H-pyrazolo[4,3-c]quinoline-8-carbohydrazide], in assay [1], the EC50 was < 1 nM and the “EC50 selectivity (SDMA assay)” value is recorded as 15. The CC50 in assay [2] is < 100 nM.

Consider `CCC(=O)N(C)N(Cc1ncc(C(F)(F)F)cc1Cl)C(=O)c1ccc2nc(N)c3cnn(C)c3c2c1` [Example 454, 4-amino-N-((3-chloro-5-(trifluoromethyl)pyridin-2-yl)methyl)-N′,1-dimethyl-N′-propionyl-1H-pyrazolo[4,3-c]quinoline-8-carbohydrazide], for which, in assay [1], the EC50 is 1 to 5 nM and the “EC50 selectivity (SDMA assay)” value is reported as 421. In addition, the CC50 in assay [2] is < 100 nM.

As to `CCN(C)N(Cc1ccc(C(F)(F)F)cn1)C(=O)c1ccc2nc(N)c3cnn(C)c3c2c1` [Example 455, 4-amino-N′-ethyl-N′,1-dimethyl-N-((5-(trifluoromethyl)pyridin-2-yl)methyl)-1H-pyrazolo[4,3-c]quinoline-8-carbohydrazide], in assay [1], the EC50 is < 1 nM and the “EC50 selectivity (SDMA assay)” value stood at 92. The CC50 in assay [2] is < 100 nM.

Take `CCN(C)N(Cc1ccc(C(F)(F)F)cn1)C(=O)c1cc2c(cc1F)nc(N)c1cnn(C)c12` [Example 456, 4-amino-N′-ethyl-7-fluoro-N′,1-dimethyl-N-((5-(trifluoromethyl)pyridin-2-yl)methyl)-1H-pyrazolo[4,3-c]quinoline-8-carbohydrazide]: in assay [1], the EC50 was < 1 nM and the “EC50 selectivity (SDMA assay)” value worked out at 25. The CC50 in assay [2] is < 100 nM.

With `CC(=O)N(C)N(Cc1ccc(Cl)cc1C#N)C(=O)c1ccc2nc(N)c3cnn(C)c3c2c1` [Example 457, N′-acetyl-4-amino-N-(4-chloro-2-cyanobenzyl)-N′,1-dimethyl-1H-pyrazolo[4,3-c]quinoline-8-carbohydrazide], in assay [1], the EC50 is < 1 nM and the “EC50 selectivity (SDMA assay)” value came to 90. Besides, in assay [2], the CC50 was < 100 nM.
